Drawing on paper PMC10409285 (PLOS Pathogens, 2023), this text covers IC50 for 21 molecules.

The target of experiment [1] is DP4.1 (HLA-DPA1*01:03/DPB1*04:01) (Homo sapiens, UniProt P04440+P20036). Nature of the experiment: fluorescence polarization competition binding assay, DP4.1. On the technique in general: Fluorescence polarisation rises when a labelled molecule tumbles more slowly, as on binding a larger partner.
For the next experiment, the target named is T1, DR2b (DRB1*15:01) (Homo sapiens, UniProt P01903+P01911).
T1 construct: Soluble DRB1*15:01 and DRB5*01:01 with a covalently linked CLIP peptides; covalently linked CLIP peptide (3C-protease-cleavable linker) (cleaved yes); purchased NIH Tetramer Core Facility / Emory University (a gift of Drs. John Altman and Richard Willis, not bought)
Briefly: fluorescence polarization competition binding assay, DR2b. As to conditions: mean of two independent experiments.

The next experiment has as its target DR2a (DRB5*01:01) (Homo sapiens, UniProt P01903+Q30154). Briefly: fluorescence polarization competition binding assay, DR2a.
The mark [2] stands for this setting: fluorescence polarization competition, soluble DP4.1-Clip 250 nM, 25 nM Alexa488 oxytocinase probe peptide, 500 nM HLA-DM, 24 h 37°C, mean of two independent experiments, read-out: Mean IC50, DPA*01:03/DPB1*04:01.

pIC50: −log10 of the molar value. Several values for one entry are separate records, joined by “and”; a condition that tells them apart may be missing. Equal values may be shown once. Read-outs that look alike come from different tables or passages of the source. No end group written: not given here.

As for `CC[C@H](C)[C@H](NC(=O)[C@H](Cc1ccccc1)NC(=O)[C@H](Cc1ccc(O)cc1)NC(=O)[C@H](CC(C)C)NC(=O)CNC(=O)[C@H](Cc1ccc(O)cc1)NC(=O)[C@@H]1CCCN1C(=O)[C@H](C)N)C(=O)N[C@@H](Cc1c[nH]cn1)C(=O)N[C@@H](Cc1ccccc1)C(=O)N[C@@H](CO)C(=O)N[C@@H](Cc1ccc(O)cc1)C(=O)N[C@H](C(=O)N1CCC[C@H]1C(=O)N[C@H](C(=O)N[C@@H](CCCCN)C(=O)O)[C@@H](C)O)C(C)C` [Peptide P6], the pIC50 in experiment [1] was 4.09.

`CC[C@H](C)[C@H](N)C(=O)N[C@@H](Cc1c[nH]cn1)C(=O)N[C@@H](Cc1ccccc1)C(=O)N[C@@H](CO)C(=O)N[C@@H](Cc1ccc(O)cc1)C(=O)N[C@H](C(=O)N1CCC[C@H]1C(=O)N[C@H](C(=O)N[C@@H](CCCCN)C(=O)N[C@@H](Cc1ccc(O)cc1)C(=O)N[C@H](C(=O)N[C@H](C(=O)N[C@@H](C)C(=O)N[C@@H](CCCNC(=N)N)C(=O)N[C@H](C(=O)N[C@@H](CO)C(=O)N1CCC[C@H]1C(=O)NCC(=O)O)C(C)C)[C@@H](C)O)C(C)C)[C@@H](C)O)C(C)C` [Peptide P7] had a pIC50 in experiment [1] of 5.03.

On to `CC(C)[C@H](NC(=O)[C@H](CC(N)=O)NC(=O)CNC(=O)CNC(=O)[C@H](CO)NC(=O)[C@@H]1CCCN1)C(=O)N[C@H](C(=O)N1CCC[C@H]1C(=O)N[C@@H](Cc1ccc(O)cc1)C(=O)N[C@@H](Cc1ccc(O)cc1)C(=O)N[C@@H](CO)C(=O)N[C@@H](Cc1c[nH]c2ccccc12)C(=O)N[C@@H](Cc1ccccc1)C(=O)N[C@@H](CO)C(=O)NCC(=O)O)C(C)C` [Peptide P10], for which the pIC50 at DR2b (DRB1*15:01) is 6.59; at DR2a (DRB5*01:01), 4.14.

Take `CC(C)C[C@H](NC(=O)[C@H](C)NC(=O)[C@H](C)NC(=O)[C@@H](N)CC(C)C)C(=O)N[C@@H](CC(N)=O)C(=O)N[C@H](C(=O)N[C@@H](Cc1ccccc1)C(=O)N[C@H](C(=O)N[C@@H](CO)C(=O)N[C@@H](Cc1c[nH]cn1)C(=O)N[C@H](C(=O)N[C@@H](CC(C)C)C(=O)N[C@H](C(=O)N[C@@H](CCCCN)C(=O)N[C@@H](Cc1ccc(O)cc1)C(=O)O)[C@@H](C)O)[C@@H](C)O)C(C)C)C(C)C` [Peptide P11.229E]: the figures for the pIC50 at DR2b (DRB1*15:01) and on DR2a (DRB5*01:01) were 6.68 and 5.68, respectively.

Turning to `CC[C@H](C)[C@H](NC(=O)[C@H](CC(C)C)NC(=O)[C@H](CCC(N)=O)NC(=O)[C@H](CCC(N)=O)NC(=O)[C@@H](NC(=O)[C@@H](NC(=O)[C@H](Cc1ccc(O)cc1)NC(=O)[C@@H](NC(=O)[C@H](CCC(N)=O)NC(=O)[C@H](CC(C)C)NC(=O)[C@H](CO)NC(=O)[C@H](CCC(N)=O)NC(=O)[C@@H](N)CC(C)C)[C@@H](C)O)C(C)C)[C@@H](C)O)C(=O)N[C@@H](CCCNC(=N)N)C(=O)N[C@@H](C)C(=O)O` [Peptide P11.CoV2], the pIC50 at DR2b (DRB1*15:01) was 6.35; on DR2a (DRB5*01:01) (fluorescence polarization competition, […], mean of two independent experiments, read-out: Mean IC50, DR2a (DRB5*01:01)) it was 5.66.

With `CC[C@H](C)[C@H](NC(=O)[C@H](CC(=O)O)NC(=O)[C@H](CO)NC(=O)[C@H](CC(C)C)NC(=O)[C@H](CCC(N)=O)NC(=O)[C@H](CCC(N)=O)NC(=O)[C@H](CO)NC(=O)[C@@H](NC(=O)[C@H](Cc1ccc(O)cc1)NC(=O)[C@H](C)NC(=O)[C@H](CC(N)=O)NC(=O)[C@H](CC(C)C)NC(=O)[C@H](C)NC(=O)[C@@H](NC(=O)[C@@H](N)CC(C)C)[C@@H](C)O)C(C)C)C(=O)O` [Peptide P11.HKU1], the pIC50 at DR2b (DRB1*15:01) was 6.66; on DR2a (DRB5*01:01), 4.67.

Take `CC(C)C[C@H](NC(=O)[C@H](C)NC(=O)[C@H](C)NC(=O)[C@@H](N)CC(C)C)C(=O)N[C@@H](CC(N)=O)C(=O)N[C@@H](C)C(=O)N[C@@H](Cc1ccccc1)C(=O)N[C@H](C(=O)N[C@@H](CO)C(=O)N[C@@H](CCC(N)=O)C(=O)N[C@H](C(=O)N[C@@H](CC(C)C)C(=O)N[C@@H](CC(N)=O)C(=O)N[C@@H](CCCCN)C(=O)N[C@@H](Cc1ccc(O)cc1)C(=O)O)C(C)C)C(C)C` [Peptide P11.NL63]: the pIC50 on DR2b (DRB1*15:01) was 6.25; at DR2a (DRB5*01:01), 5.68.

For the molecule `CC(C)C[C@H](NC(=O)[C@H](C)NC(=O)[C@@H](NC(=O)[C@@H](N)CC(C)C)[C@@H](C)O)C(=O)N[C@@H](CC(N)=O)C(=O)N[C@@H](C)C(=O)N[C@@H](Cc1ccc(O)cc1)C(=O)N[C@H](C(=O)N[C@@H](CO)C(=O)N[C@@H](CCC(N)=O)C(=O)N[C@@H](CCC(N)=O)C(=O)N[C@@H](CC(C)C)C(=O)N[C@@H](CO)C(=O)N[C@@H](CC(=O)O)C(=O)N[C@@H](CO)C(=O)O)C(C)C` [Peptide P11], the pIC50 on DR2b (DRB1*15:01) was 6.85; at DR2a (DRB5*01:01) it was 4.20.

Take `CC[C@H](C)[C@H](NC(=O)CNC(=O)[C@H](CC(N)=O)NC(=O)[C@@H](NC(=O)[C@H](Cc1ccccc1)NC(=O)[C@@H](N)CC(=O)O)[C@@H](C)CC)C(=O)N[C@@H](Cc1ccccc1)C(=O)N[C@@H](C)C(=O)N[C@@H](CCCCN)C(=O)N[C@H](C(=O)N[C@@H](CCCCN)C(=O)N[C@@H](CC(N)=O)C(=O)N[C@H](C(=O)N[C@@H](CCCCN)C(=O)N[C@H](C(=O)N[C@H](C(=O)N[C@@H](CCCCN)C(=O)O)[C@@H](C)CC)C(C)C)[C@@H](C)O)C(C)C` [Peptide P12]: the pIC50 on DR2b (DRB1*15:01) was 4.77; at DR2a (DRB5*01:01), > 6.00 and 6.85.

In the case of `CC[C@H](C)[C@H](NC(=O)CNC(=O)[C@H](CC(=O)O)NC(=O)[C@H](CCC(N)=O)NC(=O)[C@H](CC(N)=O)NC(=O)[C@H](Cc1ccccc1)NC(=O)[C@H](C)NC(=O)[C@H](CC(C)C)NC(=O)[C@H](CC(C)C)NC(=O)[C@H](Cc1ccc(O)cc1)NC(=O)[C@H](CCC(N)=O)NC(=O)[C@H](CCCNC(=N)N)NC(=O)[C@@H](N)CO)C(=O)N[C@H](C(=O)N[C@@H](Cc1ccccc1)C(=O)N[C@@H](CC(N)=O)C(=O)O)[C@@H](C)CC` [Peptide P13], the pIC50 on DR2a (DRB5*01:01) was 4.36.

Turning to `CC(C)C[C@H](NC(=O)[C@@H](NC(=O)[C@@H]1CCCN1C(=O)[C@@H](N)CC(N)=O)C(C)C)C(=O)N1CCC[C@H]1C(=O)N[C@@H](Cc1ccccc1)C(=O)N[C@@H](CC(N)=O)C(=O)N[C@@H](CC(=O)O)C(=O)NCC(=O)N[C@H](C(=O)N[C@@H](Cc1ccc(O)cc1)C(=O)N[C@@H](Cc1ccccc1)C(=O)N[C@@H](C)C(=O)N[C@@H](CO)C(=O)N[C@H](C(=O)N[C@@H](CCC(=O)O)C(=O)O)[C@@H](C)O)C(C)C` [S#17 (CoV2)], the pIC50 in experiment [1] (setting [2]) was 4.12.

For `CC[C@H](C)[C@H](NC(=O)[C@H](CO)NC(=O)[C@H](CCC(N)=O)NC(=O)[C@H](CO)NC(=O)[C@H](C)NC(=O)[C@@H](NC(=O)[C@@H](N)CO)C(C)C)C(=O)N[C@H](C(=O)N[C@@H](C)C(=O)N[C@@H](Cc1ccc(O)cc1)C(=O)N[C@H](C(=O)N[C@@H](CCSC)C(=O)N[C@@H](CO)C(=O)N[C@@H](CC(C)C)C(=O)NCC(=O)N[C@@H](C)C(=O)O)[C@@H](C)O)[C@@H](C)CC` [S#138 (CoV2)], the pIC50 in experiment [1] (setting [2]) is 3.36.

Consider `CC[C@H](C)[C@H](NC(=O)[C@@H](NC(=O)[C@@H](N)CO)[C@@H](C)CC)C(=O)N[C@@H](C)C(=O)N[C@@H](Cc1ccc(O)cc1)C(=O)N[C@H](C(=O)N[C@@H](CCSC)C(=O)N[C@@H](CO)C(=O)N[C@@H](CC(C)C)C(=O)NCC(=O)N[C@@H](C)C(=O)N[C@@H](CCC(=O)O)C(=O)N[C@@H](CC(N)=O)C(=O)N[C@@H](CO)C(=O)N[C@H](C(=O)N[C@@H](C)C(=O)O)C(C)C)[C@@H](C)O` [S#139 (CoV2)], for which the pIC50 in experiment [1] (setting [2]) was 3.53.

For `CC[C@H](C)[C@H](NC(=O)[C@H](Cc1ccccc1)NC(=O)[C@H](CO)NC(=O)[C@H](CCCNC(=N)N)NC(=O)[C@H](CCCCN)NC(=O)[C@H](CO)NC(=O)[C@@H]1CCCN1C(=O)[C@@H](N)CCCCN)C(=O)N[C@@H](CCC(=O)O)C(=O)N[C@@H](CC(=O)O)C(=O)N[C@@H](CC(C)C)C(=O)N[C@@H](CC(C)C)C(=O)N[C@@H](Cc1ccccc1)C(=O)N[C@@H](CC(N)=O)C(=O)N[C@@H](CCCCN)C(=O)N[C@H](C(=O)O)C(C)C` [S#163 (CoV2)], in experiment [1] (setting [2]), the pIC50 is 6.54.

Consider `CC[C@H](C)[C@H](NC(=O)[C@H](Cc1ccccc1)NC(=O)[C@@H](N)CO)C(=O)N[C@@H](CCC(=O)O)C(=O)N[C@@H](CC(=O)O)C(=O)N[C@@H](CC(C)C)C(=O)N[C@@H](CC(C)C)C(=O)N[C@@H](Cc1ccccc1)C(=O)N[C@@H](CC(N)=O)C(=O)N[C@@H](CCCCN)C(=O)N[C@H](C(=O)N[C@H](C(=O)N[C@@H](CC(C)C)C(=O)N[C@@H](C)C(=O)N[C@@H](CC(=O)O)C(=O)N[C@@H](C)C(=O)O)[C@@H](C)O)C(C)C` [S#164 (CoV2)], for which the pIC50 in experiment [1] (setting [2]) was 3.89.

For `CC(C)C[C@H](NC(=O)[C@H](Cc1ccccc1)NC(=O)[C@@H](NC(=O)[C@@H](NC(=O)CNC(=O)[C@H](Cc1c[nH]cn1)NC(=O)[C@@H]1CCCN1C(=O)[C@H](C)N)C(C)C)C(C)C)C(=O)N[C@@H](Cc1c[nH]cn1)C(=O)N[C@H](C(=O)N[C@H](C(=O)N[C@@H](Cc1ccc(O)cc1)C(=O)N[C@H](C(=O)N1CCC[C@H]1C(=O)N[C@@H](C)C(=O)N[C@@H](CCC(N)=O)C(=O)O)C(C)C)[C@@H](C)O)C(C)C` [S#212 (CoV2)], the pIC50 in experiment [1] (setting [2]) was 3.60.

For `CC(C)C[C@H](NC(=O)[C@H](Cc1ccccc1)NC(=O)[C@@H](N)C(C)C)C(=O)N[C@@H](Cc1c[nH]cn1)C(=O)N[C@H](C(=O)N[C@H](C(=O)N[C@@H](Cc1ccc(O)cc1)C(=O)N[C@H](C(=O)N1CCC[C@H]1C(=O)N[C@@H](C)C(=O)N[C@@H](CCC(N)=O)C(=O)N[C@@H](CCC(=O)O)C(=O)N[C@@H](CCCCN)C(=O)N[C@@H](CC(N)=O)C(=O)N[C@@H](Cc1ccccc1)C(=O)N[C@H](C(=O)O)[C@@H](C)O)C(C)C)[C@@H](C)O)C(C)C` [S#213 (CoV2)], the pIC50 in experiment [1] (setting [2]) is 3.62.

NRGRQFYEFYNDVKPP [Peptide P14] gave a pIC50 in experiment [1] of 5.29.

With PSASAFFGMSRIGMEVT [N#45 (CoV2)], in experiment [1] (setting [2]), the pIC50 was 3.26.

Regarding YLAISNELLLTVPTK [Peptide P1], the pIC50 in experiment [1] was > 6.00 and 6.39.

On to YVYSRVKNLNSSRVPDL [E#9 (CoV2)], for which, in experiment [1] (setting [2]), the pIC50 was 3.18.
